Laboratory results reported in patent US6380396B1, “Quaternary ammonium compounds” (Pfizer Inc., priority 1997, dated 2002).

Legend:
[1] = target: T1, human NK1 receptor (Homo sapiens, UniProt P25103); assay: inhibition of [3H]-Substance P binding to membranes from human IM9 cell line
T1 construct: membranes prepared from the human IM9 cell line expressing the human NK1 receptor; endogenous in cells; host or cells: human IM9 cell line (membranes)
Text: The affinity of the compounds of the formula (I) for the human NK1 receptor can be determined in vitro by determining their ability to inhibit [^3H]-Substance P binding to membranes prepared from the human IM9 cell line expressing the human NK1 receptor using a modification of the method described in McLean, S. et al, J. Pharm.Exp.Ther., 267, 472-9 (1993) in which whole cells were used.

[2] = target: T2, human NK2 receptor (Homo sapiens, UniProt P21452); assay: competition with [3H]-NKA for binding to membranes from Chinese hamster ovary cells expressing the cloned receptor; settings: CHO cell membranes, 90 min, 25° C.
T2 construct: expressed in transfected cells; host or cells: Chinese hamster ovary cells (membranes)
T2 sequence (P21452 1-398): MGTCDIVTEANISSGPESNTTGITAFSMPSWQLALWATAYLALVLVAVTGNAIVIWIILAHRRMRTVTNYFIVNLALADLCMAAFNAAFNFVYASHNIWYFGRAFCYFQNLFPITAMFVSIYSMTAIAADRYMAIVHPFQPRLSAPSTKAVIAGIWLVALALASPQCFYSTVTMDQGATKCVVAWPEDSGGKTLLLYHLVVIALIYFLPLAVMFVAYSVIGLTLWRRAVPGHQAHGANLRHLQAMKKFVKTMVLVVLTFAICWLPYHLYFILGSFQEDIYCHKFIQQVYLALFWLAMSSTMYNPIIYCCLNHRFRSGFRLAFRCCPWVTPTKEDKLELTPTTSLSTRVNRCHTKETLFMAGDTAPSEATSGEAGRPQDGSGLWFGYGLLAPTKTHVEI
Method: The affinity of the compounds of formula (I) for the human NK2 receptor can be determined in vitro by determining their ability to compete with [^3H]-NKA (neurokinin A) for binding to membranes prepared from Chinese hamster ovary cells expressing the cloned human NK2 receptor. In this method, washed Chinese hamster ovary cell membranes are prepared as described for the previous method where IM9 cells are used instead. The membranes are incubated (90 min, 25° C.) with [^3H]-NKA and with a range of concentrations of the test compound. Non-specific binding is determined in the presence of 10 μM NKA.

T1 sequence (P25103 whole entry): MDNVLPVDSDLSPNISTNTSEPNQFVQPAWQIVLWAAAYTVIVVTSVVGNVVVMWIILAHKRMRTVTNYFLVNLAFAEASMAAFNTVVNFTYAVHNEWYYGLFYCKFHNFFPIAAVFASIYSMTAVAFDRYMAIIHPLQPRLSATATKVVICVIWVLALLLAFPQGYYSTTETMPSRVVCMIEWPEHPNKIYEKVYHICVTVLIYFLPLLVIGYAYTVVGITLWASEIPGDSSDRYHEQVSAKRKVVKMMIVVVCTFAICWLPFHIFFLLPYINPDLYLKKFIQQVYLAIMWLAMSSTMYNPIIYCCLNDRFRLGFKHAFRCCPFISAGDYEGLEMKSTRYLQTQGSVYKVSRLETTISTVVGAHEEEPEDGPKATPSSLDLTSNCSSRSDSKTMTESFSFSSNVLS

SMILES | IC50 [1] | IC50 [2]
O=C(c1cccc2c1CCCC2)c1nccn1C[C@H](CC[N+]12CCC(c3ccccc3)(CC1)CC2)c1ccc(Cl)c(Cl)c1 [Example 19, 4-Phenyl-1-(3(R)-[3,4-dichlorophenyl]-4-[2-(1,2.3,4-tetrahydro-5-naphthoyl)imidazol-1-yl]butyl)quinuclidinium methanesulphonate] | 2 nM | 24 nM
O=C(c1cccc2c1OCC2)c1nccn1CC(CC[N+]12CCC(c3ccccc3)(CC1)CC2)c1ccc(Cl)c(Cl)c1 (stereo not shown) [Example 5] | 8 nM | 11 nM
Cc1cccc(C(=O)c2nccn2CC(CC[N+]23CCC(c4ccccc4)(CC2)CC3)c2ccc(Cl)c(Cl)c2)c1C (stereo not shown) [Example 2] | 0.6 nM | 4 nM
O=C(c1cccc2c1CCCC2)c1nccn1C[C@@H](CC[N+]12CCC(c3ccccc3)(CC1)CC2)c1ccc(Cl)c(Cl)c1 [Example 18, 4-Phenyl-1-(3(S)-[3,4-dichlorophenyl]-4-[2-(1,2,3,4-tetrahydro-5-naphthoyl)imidazol-1-yl]butyl)quinuclidinium methanesulphonate] | 123 nM | 3 nM
O=C(c1ccc2ccccc2c1)c1nccn1CC(CC[N+]12CCC(c3ccccc3)(CC1)CC2)c1ccc(Cl)c(Cl)c1 (stereo not shown) [Example 6] | 9 nM | 96 nM
